Here are results for eight molecules from patent US11529422B2, “Polymer linkers and their uses” (priority 2016, dated 2022).

The test system of one assay is HCC1954 cells. The experiment in a line: Cell Viability Assay (CellTiter-Glo), HCC1954. In kind it is cell-based.
Another assay has as its system NCI-N87 cells. The experiment in a line: Cell Viability Assay (CellTiter-Glo), NCI-N87. In kind it is cell-based. In general terms: ATP-based viability assays read luminescence as a measure of living cells.
A further assay concerns SK-BR-3 cells. As to the kind of experiment: Cell Viability Assay (CellTiter-Glo), SK-BR-3. In kind it is cell-based.
The subject of another assay is BT-474 cells. The experiment in a line: Cell Viability Assay (CellTiter-Glo), BT-474. In kind it is cell-based.
For assay [1], the system named is HER2 expressing cancer cell lines. As to conditions: for activity compared with free Auristatin F, in words: summary of Table 1. As for the experimental part:
Three HER2 expressing breast cancer cell lines (BT474, HCC1954 and SK-BR-3) and HER2 expressing gastric cancer cell line NCI-N87 were used in the viability assay. The cells were placed in opaque-walled 96-well plate and allowed to adhere overnight at 37° C. in 5% CO2 and 95% humidity atmosphere. Cell density per well: 7000 (BT474), 3000 (HCC1954), 5000 (NCI-N87), 4000 (SK-BR-3). The test compounds or conjugates were added to experimental wells, and incubate at 37° C. in 5% CO2 and 95% humidity atmosphere for 72 hours. The plates were equilibrated at room temperature for 30 min. CellTiter-Glo® reagent equal to the volume of cell culture medium present in each well was added. After cell lysis on an orbital shaker for 2 min, the plate was incubated at room temperature for 10 min. Luminescence were recorded using EnVision® Multilabel Reader (PerkinElmer, 2104-0010A). GraphPad Prism 5.0 was used to analyze the data. The dose response curves were determined, and the IC50 value was calculated.
Another assay measured the IC50 values for compounds 24 and 25 on the same cell lines and MCF7 breast cancer cell.

The next assay deals with MCF7 breast cancer cell. As to the kind of experiment: Cell Viability Assay (CellTiter-Glo), MCF7. In kind it is cell-based. As to conditions: MCF7, Table 2 (another assay).
The mark [2] stands for this setting: HCC1954, Table 2 (another assay).
Where [3] appears, read: NCI-N87, Table 2 (another assay).
The mark [4] stands for this setting: SK-BR-3, Table 2 (another assay).
Setting [5] is: BT-474, Table 2 (another assay).

Where a SMILES comes first, the peptide text is derived from it. [ ]: non-standard residue; d: D form. The star is where a group is joined. Dolaproine = CO[C@@H]([C@@H]1CCCN1)[C@@H](C)C(=O)O; Dil = CC[C@H](C)[C@H](NC)[C@@H](CC(=O)O)OC; NMe2Val = CC(C)[C@@H](C(=O)*)N(C)C

Method for BT-474 cells: (§1) Compounds and conjugates were tested for their activity using the Cell Viability Assay (CellTiter-Glo® Luminescent Cell Viability Assay from Promega), which measures the number of viable cells in culture after treatment with the inventive compounds or conjugates for 72 hours based on quantitation of the ATP present (Cell Viability. IC50).
Method for HCC1954 cells: as §1
Method for MCF7 breast cancer cell: as §1
Method for NCI-N87 cells: as §1
Method for SK-BR-3 cells: as §1

Regarding “poly(1-hydroxymethylethylene hydroxy-methyl formal)-SPA-(auristatin F 2-(2-hydroxy-ethoxy)-ethylamide L-Alanine)-SSPy [Compound 15]”, the IC50 (commonly the concentration that inhibits the measured activity by half) in the assay with HCC1954 cells (HCC1954, 72 hours, Table 1) is 23.9 nM; with NCI-N87 cells (NCI-N87, 72 hours, Table 1), above 500 nM; in the assay on SK-BR-3 cells (SK-BR-3, 72 hours, Table 1), 37 nM; with BT-474 cells (BT-474, 72 hours, Table 1), 57.4 nM. The “activity compared with free Auristatin F, in words” value in assay [1] is “activity similar to free Auristatin F”.
Consider “poly(1-hydroxymethylethylene hydroxy-methyl formal)-SPA-(auristatin F 2-(2-hydroxy-ethoxy)-ethylamide L-Alanine)-(Trastuzumab-MCC) [Compound 16]”, for which the IC50 in the assay on HCC1954 cells (HCC1954, 72 hours, Table 1) came out at 0.13 nM; with NCI-N87 cells (NCI-N87, 72 hours, Table 1), 55.6 nM; in the assay on SK-BR-3 cells (SK-BR-3, 72 hours, Table 1), 22 nM; with BT-474 cells (BT-474, 72 hours, Table 1) it was 0.39 nM. Further, the “activity compared with free Auristatin F, in words” value in assay [1] is “inhibition of HER2 increases significantly”.
As to “poly(1-hydroxymethylethylene hydroxy-methyl formal)-SPA-(auristatin F 2-(2-hydroxy-ethoxy)-ethylamide L-Alanine)-maleimide [Compound 24]”, the IC50 in the assay with HCC1954 cells (setting [2]) amounted to 45.9 nM; in the assay with NCI-N87 cells (setting [3]) it was 91.5 nM; with SK-BR-3 cells (setting [4]) it was 56.6 nM; in the assay on BT-474 cells (setting [5]), 58 nM; in the assay on MCF7 breast cancer cell, 230 nM.
As for “poly(1-hydroxymethylethylene hydroxy-methyl formal)-SPA-(auristatin F 2-(2-hydroxy-ethoxy)-ethylamide L-Alanine)-Trastuzumab [Compound 17]”, the IC50 is below 0.05 nM in the assay on HCC1954 cells (HCC1954, 72 hours, Table 1); below 0.05 nM in the assay with NCI-N87 cells (NCI-N87, 72 hours, Table 1); below 0.05 nM with SK-BR-3 cells (SK-BR-3, 72 hours, Table 1); below 0.05 nM with BT-474 cells (BT-474, 72 hours, Table 1). Moreover, in assay [1], the “activity compared with free Auristatin F, in words” value is on record as “inhibition of HER2 increases significantly”.
Consider “poly(1-hydroxymethylethylene hydroxy-methyl formal)-SPA-(auristatin F 2-(2-hydroxy-ethoxy)-ethylamide L-Alanine)-maleimide [Compound 14]”, for which the IC50 with HCC1954 cells (HCC1954, 72 hours, Table 1) was 32.2 nM; with NCI-N87 cells (NCI-N87, 72 hours, Table 1), above 500 nM; in the assay on SK-BR-3 cells (SK-BR-3, 72 hours, Table 1), 48 nM; with BT-474 cells (BT-474, 72 hours, Table 1), 87.9 nM. Besides, the “activity compared with free Auristatin F, in words” value in assay [1] was “activity similar to free Auristatin F”.
For `N.N.[Cl][Pt][Cl]` [Cisplatin, reference compound], the 50% inhibitory concentration (IC50) in the assay on HCC1954 cells (HCC1954, 72 hours, Table 1) is 6050 nM; in the assay on HCC1954 cells (setting [2]), 6230 nM; in the assay with NCI-N87 cells (NCI-N87, 72 hours, Table 1) it was 4560 nM; with NCI-N87 cells (setting [3]) it was 1660 nM; in the assay on SK-BR-3 cells (SK-BR-3, 72 hours, Table 1), 1920 nM; in the assay with SK-BR-3 cells (setting [4]) it was 871 nM. In addition, the half-inhibitory concentration (IC50) in the assay with BT-474 cells (BT-474, 72 hours, Table 1) was above 100000 nM; with BT-474 cells (setting [5]), 38500 nM; in the assay with MCF7 breast cancer cell, 9150 nM.
On to `CC[C@H](C)[C@@H]([C@@H](CC(=O)N1CCC[C@H]1[C@H](OC)[C@@H](C)C(=O)N[C@@H](Cc1ccccc1)C(=O)O)OC)N(C)C(=O)[C@@H](NC(=O)[C@H](C(C)C)N(C)C)C(C)C` [Auristatin F, reference compound] (NMe2Val-V[Dil][Dolaproine]F-OH), for which the IC50 is 38.2 nM in the assay with HCC1954 cells (HCC1954, 72 hours, Table 1); 200 nM with HCC1954 cells (setting [2]); 69.8 nM in the assay on NCI-N87 cells (NCI-N87, 72 hours, Table 1); 386 nM with NCI-N87 cells (setting [3]); 51 nM in the assay on SK-BR-3 cells (SK-BR-3, 72 hours, Table 1); 233 nM in the assay with SK-BR-3 cells (setting [4]). In addition, the IC50 is 264 nM with BT-474 cells (BT-474, 72 hours, Table 1); 1540 nM in the assay with BT-474 cells (setting [5]); 1950 nM in the assay with MCF7 breast cancer cell.
“poly(1-hydroxymethylethylene hydroxy-methyl formal)-SPA-(auristatin F 2-(2-hydroxy-ethoxy)-ethylamide L-Alanine)-Trastuzumab [Compound 25]”: the IC50 with HCC1954 cells (setting [2]) was 0.2 nM; in the assay on NCI-N87 cells (setting [3]) it was 0.3 nM; in the assay with SK-BR-3 cells (setting [4]), 0.1 nM; in the assay with BT-474 cells (setting [5]), 0.4 nM; with MCF7 breast cancer cell it was 3.3 nM. For the same molecule, in assay [1] (summary of Table 2, same cell lines and MCF7), the “activity compared with compound 24 and controls, in words” value is “significant increase in activity as compared to compound 24”.
